From US6241963A, “Dopamine and serotonin transporter ligands and imaging agents” (priority 1996, dated 2001)
“And” between values parts separate entries of the source, which are not always exact repeats. Identical values can stand only once. Like-named read-outs stand apart in the source and are kept apart here.

Columns and labels:
[1] = Partition coefficient between 1-octanol (n-octanol) and buffer; assay type: physicochemical
Experimental: (§1) Partition coefficients were measured by mixing each Tc-99m compound with 3 g each of 1-octanol and buffer (pH 7.0 or 7.4, 0.1 M phosphate) in a test tube. The test tube was vortexed for 3 minutes at room temperature, then centrifuged for 5 minutes. Two weighed samples (0.5 g each) from the 1-octanol and buffer layers were counted in a well counter. The partition coefficient was determined by calculating the ratio of cpm/g of octanol to that of buffer. Samples from the octanol layer were repartitioned until consistent partition coefficient values were obtained. The measurement was repeated 3 times.
as §1, with “The partition coefficient was measured” for “Partition coefficients were measured”, “mixing the” for “mixing each”, “3 min” for “3 minutes”

[2] = assay type: in vivo, Male Sprague-Dawley rats
Procedure, shortened: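 Male Sprague-Dawley rats (225-300 g) under ether or halothane anesthesia given 0.2 mL saline containing 50-100 μCi Tc-99m tracer via femoral vein, sacrificed at various times. Organs weighed and gamma counted; % dose per organ versus injected aliquots, with striatum/cerebellum ratio from % dose/gram; brain uptake at 2 min.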

dopamine transporter = assay: Blocking studies in rats (pretreatment or co-injection with competing agent); assay type: in vivo, Male Sprague-Dawley rats; details: for ST/CB ratio after pretreatment with haldol (haloperidol) / ST/CB ratio after pretreatment with β-CIT (RTI-55): 60 min, pretreated 1 mg/kg iv, 5 min before tracer; for ST/CB ratio, control rats of blocking study: 60 min post-injection, no pretreatment
Experimental: (§2) Regional brain distribution in rats was obtained after an injection of 1.19a, 1.19b, 1.20a, 1.20b or 1.21. Samples from different brain regions (cortex, striatum, hippocampus, and cerebellum) were dissected, weighed and counted, and the percentage dose per gram of sample was calculated by comparing the sample counts with the count of the diluted initial dose. The uptake ratio of each region was obtained by dividing the percentage dose per gram of that region by that of the cerebellum. For blocking studies, rats were injected with either β-CIT or haloperidol (iv, 1 mg/Kg) 5 min prior to injection of 1.19a. The rats were dissected and brain tissue samples were counted as described above. The specific uptake of the compound was expressed as ratio of ST/CB (% dose/g of striatum divided by the same of cerebellum).
as §2, with “3.24 to 3.34.” for “1.19a, 1.19b, 1.20a, 1.20b or 1.21.”, “3.25.” for “1.19a.”, “above.” for “above. The specific uptake of the compound was expressed as ratio of ST/CB (% dose/g of striatum divided by the same of cerebellum).”

[3] = Table 1.2, rats iv, percentage dose per organ

CN1[C@H]2CC[C@@H]1[C@@H](C[N+]13CC[S][99Tc-]14(=[O])[S]CC[N]4CC3)[C@@H](c1ccc(Cl)cc1)C2 (stereo partly shown) [Compound 1.19a]
Partition coefficient (P.C.), 1-octanol/pH 7.0 buffer ([1]; 1-octanol/pH 7.0 phosphate buffer, listed as TRODAT-1): 227 | Biodistribution, Blood, 60 minutes* ([2]; Table 1.2, *unexplained): 6.29 ± 1.12 | Biodistribution, Brain, 60 minutes* ([2]; Table 1.2, *unexplained): 0.12 ± 0.01 | Biodistribution, Heart, 60 minutes* ([2]; Table 1.2, *unexplained): 0.25 ± 0.05 | Biodistribution, Kidney, 60 minutes* ([2]; Table 1.2, *unexplained): 1.76 ± 0.32 | Biodistribution, Liver, 60 minutes* ([2]; Table 1.2, *unexplained): 20.35 ± 0.99 | Biodistribution, Lung, 60 minutes* ([2]; Table 1.2, *unexplained): 1.76 ± 0.12 | Biodistribution, Muscle, 60 minutes* ([2]; Table 1.2, *unexplained): 10.37 ± 0.48 | Biodistribution, Skin, 60 minutes* ([2]; Table 1.2, *unexplained): 4.11 ± 0.29 | Biodistribution, Spleen, 60 minutes* ([2]; Table 1.2, *unexplained): 0.51 ± 0.06 | Biodistribution, Blood, 2 minutes [2, 3]: 4.94 ± 0.46 | Biodistribution, Blood, 60 minutes [2, 3]: 2.14 ± 0.17 | Biodistribution, Brain, 2 minutes [2, 3]: 0.43 ± 0.16 | Biodistribution, Brain, 60 minutes [2, 3]: 0.12 ± 0.00 | Biodistribution, Heart, 2 minutes [2, 3]: 1.47 ± 0.16 | Biodistribution, Heart, 60 minutes [2, 3]: 0.19 ± 0.02 | Biodistribution, Kidney, 2 minutes [2, 3]: 5.13 ± 0.75 | Biodistribution, Kidney, 60 minutes [2, 3]: 3.06 ± 0.14 | Biodistribution, Liver, 2 minutes [2, 3]: 16.62 ± 2.11 | Biodistribution, Liver, 60 minutes [2, 3]: 17.67 ± 3.42 | Biodistribution, Lung, 2 minutes [2, 3]: 6.82 ± 0.37 | Biodistribution, Lung, 60 minutes [2, 3]: 1.86 ± 0.36 | Biodistribution, Muscle, 2 minutes [2, 3]: 10.84 ± 1.95 | Biodistribution, Muscle, 60 minutes [2, 3]: 10.28 ± 1.36 | Biodistribution, Skin, 2 minutes [2, 3]: 2.66 ± 0.35 | Biodistribution, Skin, 60 minutes [2, 3]: 3.96 ± 0.22 | Biodistribution, Spleen, 2 minutes [2, 3]: 0.42 ± 0.16 | Biodistribution, Spleen, 60 minutes [2, 3]: 0.45 ± 0.05 | Brain uptake, 2 min ([2]; rats, iv, 2 min): 0.43 ± 0.16 % dose/organ | Brain uptake, 2 min ([2]; rats, iv, 2 min, listed as TRODAT-1): 0.425 ± 0.120 % dose/organ | Brain uptake, 30 min ([2]; rats, iv, 30 min): 0.232 ± 0.021 % dose/organ | Brain uptake, 60 min ([2]; rats, iv, 60 min): 0.12 ± 0.001 % dose/organ and 0.12 ± 0.00 % dose/organ | ST/CB ratio after pretreatment with haldol (haloperidol) (dopamine transporter): 2.6 | ST/CB ratio after pretreatment with β-CIT (RTI-55) (dopamine transporter): 1.0 | ST/CB ratio, control rats of blocking study (dopamine transporter): 2.66 and 2.6

COC(=O)C1C(c2ccc(Cl)cc2)CC2CCC1N2CC[S][99Tc-]12(=[O])[S]CC[N+]1(C)CC[S]2 [Compound 3.25, [^99m Tc] technetium, [methyl 3-(4-chlorophenyl)-8-(2-mercaptoethyl)-8-azabicyclo [3.2.1]octane-2-carboxylato-S][[2,2'-(methylimino)bis[ethanethiolato]](2-)-N,S,S']oxo]
Partition coefficient / lipophilicity, comparison in words [1]: appears to be the best among this series of three plus one Tc complexes | Partition coefficient, n-octanol/buffer ([1]; n-octanol/phosphate buffer (pH 7.0 or 7.4)): 307 | Brain Uptake (% dose), 2 min ([2]; Table 3.1, rats, iv, 2 min): 0.100 ± 0.068 % dose | Brain Uptake (% dose), 30 min ([2]; Table 3.1, rats, iv, 30 min): 0.07 ± 0.003 % dose | Biodistribution and washout, in words ([2]; rats, iv): cleared from muscle, while liver accumulation increased with time | Blood uptake, 2 min ([2]; rats, iv, 2 min): 4.72 ± 1.37 % dose/organ | Brain uptake, 2 min ([2]; rats, iv, 2 min): 0.10 ± 0.02 % dose/organ | Heart uptake, 2 min ([2]; rats, iv, 2 min): 1.46 ± 0.37 % dose/organ | Kidney uptake, 2 min ([2]; rats, iv, 2 min): 5.67 ± 0.94 % dose/organ | Liver uptake, 2 min ([2]; rats, iv, 2 min): 13.51 ± 0.36 % dose/organ | Lung uptake, 2 min ([2]; rats, iv, 2 min): 6.41 ± 2.04 % dose/organ | Muscle uptake, 2 min ([2]; rats, iv, 2 min): 23.30 ± 3.82 % dose/organ | Skin uptake, 2 min ([2]; rats, iv, 2 min): 2.94 ± 0.36 % dose/organ | Spleen uptake, 2 min ([2]; rats, iv, 2 min): 0.36 ± 0.07 % dose/organ | Blood uptake, 30 min ([2]; rats, iv, 30 min): 2.75 ± 0.62 % dose/organ | Brain uptake, 30 min ([2]; rats, iv, 30 min): 0.06 ± 0.02 % dose/organ | Heart uptake, 30 min ([2]; rats, iv, 30 min): 0.30 ± 0.04 % dose/organ | Kidney uptake, 30 min ([2]; rats, iv, 30 min): 3.10 ± 0.68 % dose/organ | Liver uptake, 30 min ([2]; rats, iv, 30 min): 29.61 ± 2.22 % dose/organ | Lung uptake, 30 min ([2]; rats, iv, 30 min): 2.09 ± 0.47 % dose/organ | Muscle uptake, 30 min ([2]; rats, iv, 30 min): 16.70 ± 3.62 % dose/organ | Skin uptake, 30 min ([2]; rats, iv, 30 min): 4.71 ± 1.27 % dose/organ | Spleen uptake, 30 min ([2]; rats, iv, 30 min): 0.61 ± 0.10 % dose/organ | Blood uptake, 60 min ([2]; rats, iv, 60 min): 2.83 ± 0.42 % dose/organ | Brain uptake, 60 min ([2]; rats, iv, 60 min): 0.046 ± 0.002 % dose/organ | Heart uptake, 60 min ([2]; rats, iv, 60 min): 0.22 ± 0.23 % dose/organ | Kidney uptake, 60 min ([2]; rats, iv, 60 min): 2.87 ± 0.43 % dose/organ | Liver uptake, 60 min ([2]; rats, iv, 60 min): 32.15 ± 3.00 % dose/organ | Lung uptake, 60 min ([2]; rats, iv, 60 min): 1.26 ± 0.06 % dose/organ | Muscle uptake, 60 min ([2]; rats, iv, 60 min): 13.63 ± 0.99 % dose/organ | Skin uptake, 60 min ([2]; rats, iv, 60 min): 4.57 ± 0.65 % dose/organ | Spleen uptake, 60 min ([2]; rats, iv, 60 min): 0.50 ± 0.09 % dose/organ | Blood uptake, 120 min ([2]; rats, iv, 120 min): 2.31 ± 0.27 % dose/organ | Brain uptake, 120 min ([2]; rats, iv, 120 min): 0.025 ± 0.002 % dose/organ | Heart uptake, 120 min ([2]; rats, iv, 120 min): 0.12 ± 0.013 % dose/organ | Kidney uptake, 120 min ([2]; rats, iv, 120 min): 2.74 ± 0.096 % dose/organ | Liver uptake, 120 min ([2]; rats, iv, 120 min): 35.37 ± 1.52 % dose/organ | Lung uptake, 120 min ([2]; rats, iv, 120 min): 0.69 ± 0.061 % dose/organ | Muscle uptake, 120 min ([2]; rats, iv, 120 min): 4.33 ± 1.20 % dose/organ | Skin uptake, 120 min ([2]; rats, iv, 120 min): 2.30 ± 0.082 % dose/organ | Spleen uptake, 120 min ([2]; rats, iv, 120 min): 0.58 ± 0.009 % dose/organ | ST/CB ratio after pretreatment with haldol (haloperidol) (dopamine transporter): 2.6 | ST/CB ratio after pretreatment with β-CIT (RTI-55) (dopamine transporter): 1.0 | ST/CB ratio, control rats of blocking study (dopamine transporter): 2.6
